{"source": "patent US20170355705A1", "about": "(GlaxoSmithKline Intellectual Property (No.2) Limited, priority 2014, published 2017)", "target": "T1, SIRT1 (Homo sapiens, UniProt Q96EB6)", "T1 sequence (Q96EB6 1-747)": "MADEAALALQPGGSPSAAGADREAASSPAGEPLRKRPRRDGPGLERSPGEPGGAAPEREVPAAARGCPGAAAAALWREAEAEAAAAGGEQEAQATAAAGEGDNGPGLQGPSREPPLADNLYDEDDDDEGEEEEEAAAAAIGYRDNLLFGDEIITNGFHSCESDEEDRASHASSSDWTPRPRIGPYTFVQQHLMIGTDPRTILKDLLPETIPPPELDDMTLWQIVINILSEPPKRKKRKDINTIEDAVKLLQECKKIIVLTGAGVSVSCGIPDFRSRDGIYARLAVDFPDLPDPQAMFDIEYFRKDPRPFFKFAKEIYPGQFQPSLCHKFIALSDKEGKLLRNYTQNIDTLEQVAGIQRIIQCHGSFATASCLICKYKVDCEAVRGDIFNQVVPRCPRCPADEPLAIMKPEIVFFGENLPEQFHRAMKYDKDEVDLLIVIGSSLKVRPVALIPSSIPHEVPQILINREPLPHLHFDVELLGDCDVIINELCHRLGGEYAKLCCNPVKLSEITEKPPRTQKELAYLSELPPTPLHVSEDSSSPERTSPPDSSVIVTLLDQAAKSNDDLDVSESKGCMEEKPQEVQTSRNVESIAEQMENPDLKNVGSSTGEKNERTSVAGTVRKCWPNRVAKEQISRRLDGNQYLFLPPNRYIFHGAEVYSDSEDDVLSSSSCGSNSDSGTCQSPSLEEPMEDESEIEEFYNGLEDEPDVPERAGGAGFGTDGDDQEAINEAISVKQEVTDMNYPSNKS", "test": "Trp mass spectrometry assay of SIRT1 activity (EC1.5, percent maximum activation)", "format": "biochemical", "details": "Trp mass spectrometry assay; for TRP Activity (EC1.5): EC1.5 = concentration giving 150% activation of SIRT1; for TRP MAX RESP (percent maximum fold activation): percent maximum activation of SIRT1", "outline": "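N-terminal His-tagged human SIRT1 from E. coli BL21(DE3) was incubated 25 min with a 5TMR-labelled, p53-derived Trp peptide and NAD plus varying compound concentrations, then quenched with formic acid. Mass spectrometry quantified OAADPR or deacetylated peptide versus compound-free control, giving EC1.5 and percent maximum activation.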", "data": [{"smiles": "O=C(Nc1ccnc(OC[C@@H](O)CO)c1)N1c2nc(-c3cncc(C(F)(F)F)c3)c(Cl)cc2N2CC[C@H]1C2", "note": "[Example 109, (4S)-8-chloro-N-(2-((S)-2,3-dihydroxypropoxy)pyridin-4-yl)-7-(5-(trifluoromethyl)pyridin-3-yl)-3,4-dihydro-1,4-methanopyrido[2,3-b][1,4]diazepine-5(2H)-carboxamide]", "values": [{"measurement": "TRP Activity (EC1.5)", "result": "B (EC1.5 1-25 μM)"}, {"measurement": "TRP MAX RESP (percent maximum fold activation)", "result": "A (Fold activation ≧150%)"}]}, {"smiles": "Cc1cc(-c2nc3c(cc2Cl)N2CC[C@@H](C2)N3C(=O)Nc2cncc(OC[C@@H](O)CO)c2)ccn1", "note": "[Example 110, (4S)-8-chloro-N-(5-((S)-2,3-dihydroxypropoxy)pyridin-3-yl)-7-(2-methylpyridin-4-yl)-3,4-dihydro-1,4-methanopyrido[2,3-b][1,4]diazepine-5(2H)-carboxamide]", "values": [{"measurement": "TRP Activity (EC1.5)", "result": "B (EC1.5 1-25 μM)"}, {"measurement": "TRP MAX RESP (percent maximum fold activation)", "result": "A (Fold activation ≧150%)"}]}, {"smiles": "O=C(Nc1ccccn1)N1c2nc(N3CCC[C@H]3C(F)(F)F)ccc2N2CC[C@H]1C2", "note": "[Example 120, (4S)-N-(pyridin-2-yl)-7-((S)-2-(trifluoromethyl)pyrrolidin-1-yl)-3,4-dihydro-1,4-methanopyrido[2,3-b][1,4]diazepine-5(2H)-carboxamide]", "values": [{"measurement": "TRP Activity (EC1.5)", "result": "B (EC1.5 1-25 μM)"}, {"measurement": "TRP MAX RESP (percent maximum fold activation)", "result": "A (Fold activation ≧150%)"}]}, {"smiles": "Cc1cc(-c2ccc3c(n2)N(C(=O)Nc2ccc4c(c2)OCCO4)[C@H]2CCN3C2)ccn1", "note": "[Example 121, (4S)-N-(2,3-dihydrobenzo[b][1,4]dioxin-6-yl)-7-(2-methylpyridin-4-yl)-3,4-dihydro-1,4-methanopyrido[2,3-b][1,4]diazepine-5(2H)-carboxamide]", "values": [{"measurement": "TRP Activity (EC1.5)", "result": "B (EC1.5 1-25 μM)"}, {"measurement": "TRP MAX RESP (percent maximum fold activation)", "result": "A (Fold activation ≧150%)"}]}, {"smiles": "CCc1cncc(NC(=O)N2c3nc(-c4ccnc(C)c4)ccc3N3CC[C@H]2C3)n1", "note": "[Example 122, (4S)-N-(6-ethylpyrazin-2-yl)-7-(2-methylpyridin-4-yl)-3,4-dihydro-1,4-methanopyrido[2,3-b][1,4]diazepine-5(2H)-carboxamide]", "values": [{"measurement": "TRP Activity (EC1.5)", "result": "A (EC1.5<1 μM)"}, {"measurement": "TRP MAX RESP (percent maximum fold activation)", "result": "A (Fold activation ≧150%)"}]}, {"smiles": "O=C(Nc1cncc(OC[C@@H](O)CO)n1)N1c2nc(-c3cccc(C(F)(F)F)c3)ccc2N2CC[C@H]1C2", "note": "[Example 123, (4S)-N-(6-((S)-2,3-dihydroxypropoxy)pyrazin-2-yl)-7-(3-(trifluoromethyl)phenyl)-3,4-dihydro-1,4-methanopyrido[2,3-b][1,4]diazepine-5(2H)-carboxamide]", "values": [{"measurement": "TRP Activity (EC1.5)", "result": "A (EC1.5<1 μM)"}, {"measurement": "TRP MAX RESP (percent maximum fold activation)", "result": "A (Fold activation ≧150%)"}]}, {"smiles": "C[C@@H]1CN(c2ccc3c(n2)N(C(=O)Nc2cnccn2)[C@H]2CCN3C2)CCO1", "note": "[Example 124, (4S)-7-((R)-2-methylmorpholino)-N-(pyrazin-2-yl)-3,4-dihydro-1,4-methanopyrido[2,3-b][1,4]diazepine-5(2H)-carboxamide]", "values": [{"measurement": "TRP MAX RESP (percent maximum fold activation)", "result": "A (Fold activation ≧150%)"}]}, {"smiles": "C[C@H]1CN(c2ccc3c(n2)N(C(=O)Nc2cnccn2)[C@H]2CCN3C2)CCO1", "note": "[Example 125, (4S)-7-((S)-2-methylmorpholino)-N-(pyrazin-2-yl)-3,4-dihydro-1,4-methano pyrido[2,3-b][1,4]diazepine-5(2H)-carboxamide]", "values": [{"measurement": "TRP MAX RESP (percent maximum fold activation)", "result": "A (Fold activation ≧150%)"}]}, {"smiles": "Cc1cc(-c2ccc3c(n2)N(C(=O)Nc2ccc4c(c2)OCCCO4)[C@H]2CCN3C2)ccn1", "note": "[Example 126, (4S)-N-(3,4-dihydro-2H-benzo[b][1,4]dioxepin-7-yl)-7-(2-methylpyridin-4-yl)-3,4-dihydro-1,4-methanopyrido[2,3-b][1,4]diazepine-5(2H)-carboxamide]", "values": [{"measurement": "TRP Activity (EC1.5)", "result": "A (EC1.5<1 μM)"}, {"measurement": "TRP MAX RESP (percent maximum fold activation)", "result": "A (Fold activation ≧150%)"}]}]}
